Test results reported in US6525059B1, “Substituted pyrazoles as p38 kinase inhibitors” (G. D. Searle & Company, priority 1998, dated 2003).

Assays:
human p38 kinase alpha = molecular target: T1, human p38 kinase alpha (Homo sapiens, UniProt Q16539); experiment: p38 kinase in vitro assay, phosphorylation of biotinylated PHAS-I with gamma 32P-ATP; type: biochemical; conditions: for inhibition at 1 µM / inhibition at 10 µM: read-out: P38 alpha kinase % inhib @ conc.; for IC50: read-out: P38 alpha kinase IC50
T1 construct: The coding region of the human p38a cDNA was obtained by PCR-amplification from RNA isolated from the human monocyte cell line THP.1; GST (N); made in house; host or cells: E. coli DH10B
T1 sequence (Q16539 whole entry): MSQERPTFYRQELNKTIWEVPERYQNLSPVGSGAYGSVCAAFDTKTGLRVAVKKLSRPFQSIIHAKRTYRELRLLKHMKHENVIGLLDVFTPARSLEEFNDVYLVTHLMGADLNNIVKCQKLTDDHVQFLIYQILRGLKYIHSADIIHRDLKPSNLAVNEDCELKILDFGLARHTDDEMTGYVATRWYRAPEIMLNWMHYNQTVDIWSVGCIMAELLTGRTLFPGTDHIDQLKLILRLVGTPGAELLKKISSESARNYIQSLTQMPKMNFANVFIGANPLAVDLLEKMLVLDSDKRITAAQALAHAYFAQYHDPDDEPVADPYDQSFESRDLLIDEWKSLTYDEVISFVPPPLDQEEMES
In short: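 Radiometric filter-capture read-out: streptavidin plates trap biotin-PHAS-I labelled by activated (MKK6) human p38α from γ-32P-ATP. Buffer 25 mM HEPES pH 7.5, 10 mM magnesium acetate, 50 μM cold ATP; reactions 1 h or overnight at 30 °C; inhibitors 10-fold dilutions 100 to 0.001 μM, triplicates, 1% DMSO.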

TNF-α = experiment: LPS stimulation of TNF production by U937 cells; type: cell-based, human; conditions: Homo sapiens; for inhibition at 1 µM: U-937, @ 1.0 uM, read-out: U937 Cell % inhib @ conc.; for IC50: U-937, TNF production, LPS-stimulated human U937 cells, read-out: U937 Cell IC50
In short: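 PMA-differentiated human U937 cells (20 ng/ml PMA, 24 h, then 24-48 h rest) at 2 million cells/ml, 0.1% DMSO final, stimulated with E. coli LPS (100 ng/ml final) for 4 h at 37° C. TNF-α in medium measured by ELISA; IC50 in μM.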

SMILES | inhibition at 1 µM (human p38 kinase alpha) | inhibition at 10 µM (human p38 kinase alpha) | IC50 (human p38 kinase alpha) | IC50 (TNF-α) | inhibition at 1 µM (TNF-α)
CCc1ccccc1NC(=O)NCc1[nH]nc(-c2ccc(F)cc2)c1-c1ccncc1 [Example B-0169] | 43% |  |  |  | 21%
O=C(Cc1cccc2ccccc12)NCc1[nH]nc(-c2ccc(F)cc2)c1-c1ccncc1 [Example B-0171] |  | 61% |  |  | 21%
O=C(NCc1[nH]nc(-c2ccc(F)cc2)c1-c1ccncc1)Nc1ccc(OC(F)(F)F)cc1 [Example B-0172] |  | 16% |  |  | 11%
O=C(NCc1[nH]nc(-c2ccc(F)cc2)c1-c1ccncc1)Nc1ccccc1 [Example B-0175] |  | 41% |  |  | 31%
O=C(NCc1[nH]nc(-c2ccc(F)cc2)c1-c1ccncc1)Nc1ccccc1-c1ccccc1 [Example B-0181] | 5% |  |  |  | 2%
O=C(NCc1[nH]nc(-c2ccc(F)cc2)c1-c1ccncc1)Nc1ccccc1OC(F)(F)F [Example B-0185] |  | 65% |  |  | 25%
Cc1cc(C)c(NC(=O)NCc2[nH]nc(-c3ccc(F)cc3)c2-c2ccncc2)c(C)c1 [Example B-0186] | 40% |  |  |  | 25%
COc1cc(OC)c(NC(=O)NCc2[nH]nc(-c3ccc(F)cc3)c2-c2ccncc2)cc1Cl [Example B-0187] |  | 4% |  |  | 14%
CCOC(=O)C(CC(C)C)NC(=O)NCc1[nH]nc(-c2ccc(F)cc2)c1-c1ccncc1 (stereo not shown) [Example B-0189] |  | 42% |  |  | 9%
COc1ccc(NC(=O)NCc2[nH]nc(-c3ccc(F)cc3)c2-c2ccncc2)cc1 [Example B-0190] |  | 59% |  |  | 31%
COc1cc(NC(=O)NCc2[nH]nc(-c3ccc(F)cc3)c2-c2ccncc2)cc(OC)c1OC [Example B-0191] | 40% |  |  |  | 29%
O=C(NCc1[nH]nc(-c2ccc(F)cc2)c1-c1ccncc1)[C@@H]1CCCN1C(=O)OCC1c2ccccc2-c2ccccc21 [Example B-0195] |  |  | 1030 nM |  | 55%
O=C(NCc1[nH]nc(-c2ccc(F)cc2)c1-c1ccncc1)[C@H]1CCCN1 [Example B-0196] |  |  | 2240 nM | > 1000 nM | 
O=C(NCc1[nH]nc(-c2ccc(F)cc2)c1-c1ccncc1)[C@H]1CCCN1C(=O)OCC1c2ccccc2-c2ccccc21 [Example B-0197] |  |  | 2000 nM |  | 14%
O=C(NCc1[nH]nc(-c2ccc(F)cc2)c1-c1ccncc1)c1ccccn1 [Example B-0198] |  |  | 1200 nM |  | 2%
O=C(NCc1[nH]nc(-c2ccc(F)cc2)c1-c1ccncc1)c1ccncc1 [Example B-0199] |  |  | 1340 nM |  | 3%
O=C(NCc1[nH]nc(-c2ccc(F)cc2)c1-c1ccncc1)c1cccnc1 [Example B-0200] |  |  | 1310 nM |  | 16%
CC(Oc1ccccc1)C(=O)NCc1[nH]nc(-c2ccc(F)cc2)c1-c1ccncc1 (stereo not shown) [Example B-0202] |  |  | 550 nM | 2260 nM | 

SMILES | inhibition at 1 µM (human p38 kinase alpha) | inhibition at 10 µM (human p38 kinase alpha) | IC50 (human p38 kinase alpha) | IC50 (TNF-α) | inhibition at 1 µM (TNF-α)
CCOC(=O)NCc1[nH]nc(-c2ccc(F)cc2)c1-c1ccncc1 [Example B-0204] |  |  | 210 nM |  | 48%
O=C(NCc1[nH]nc(-c2ccc(F)cc2)c1-c1ccncc1)c1cnc2ccccc2n1 [Example B-0206] |  |  | 5760 nM |  | 14%
O=C(NCc1[nH]nc(-c2ccc(F)cc2)c1-c1ccncc1)c1ccco1 [Example B-0209] |  |  | 290 nM |  | 8%
CNC(=O)NCc1[nH]nc(-c2ccc(F)cc2)c1-c1ccncc1 [Example B-0211] |  |  | 250 nM |  | 30%
CCCNC(=O)NCc1[nH]nc(-c2ccc(F)cc2)c1-c1ccncc1 [Example B-0213] |  |  | 310 nM |  | 39%
CC(=O)Nc1nc(C)c(S(=O)(=O)NCc2[nH]nc(-c3ccc(F)cc3)c2-c2ccncc2)s1 [Example B-0222] |  |  | 400 nM |  | 29%
O=S(=O)(NCc1[nH]nc(-c2ccc(F)cc2)c1-c1ccncc1)c1cccc(Br)c1 [Example B-0235] |  |  | 1310 nM |  | 90%
Cc1noc(C)c1S(=O)(=O)NCc1[nH]nc(-c2ccc(F)cc2)c1-c1ccncc1 [Example B-0251] |  |  | 310 nM |  | 1%
O=C(NCc1ccc(S(=O)(=O)NCc2[nH]nc(-c3ccc(F)cc3)c2-c2ccncc2)s1)c1ccccc1 [Example B-0255] |  |  | 320 nM |  | 68%
Cc1c(C)c(S(=O)(=O)NCc2[nH]nc(-c3ccc(F)cc3)c2-c2ccncc2)c(C)c2c1OC(C)(C)CC2 [Example B-0257] |  |  | 1710 nM |  | 11%
O=S(=O)(NCc1[nH]nc(-c2ccc(F)cc2)c1-c1ccncc1)c1ccc(-c2ccccn2)s1 [Example B-0258] |  |  | 370 nM |  | 63%
O=S(=O)(NCc1[nH]nc(-c2ccc(F)cc2)c1-c1ccncc1)c1cc(S(=O)(=O)c2ccccc2)cs1 [Example B-0259] |  |  | 350 nM |  | 58%
Cc1ccc(S(C)(=O)=O)cc1S(=O)(=O)NCc1[nH]nc(-c2ccc(F)cc2)c1-c1ccncc1 [Example B-0260] |  |  | 560 nM |  | 23%
CS(=O)(=O)c1ccccc1S(=O)(=O)NCc1[nH]nc(-c2ccc(F)cc2)c1-c1ccncc1 [Example B-0261] |  |  | 490 nM |  | 23%
O=S(=O)(NCc1[nH]nc(-c2ccc(F)cc2)c1-c1ccncc1)c1ccc(-c2ccon2)s1 [Example B-0262] |  |  | 410 nM |  | 89%
O=S(=O)(NCc1[nH]nc(-c2ccc(F)cc2)c1-c1ccncc1)c1ccc(S(=O)(=O)c2ccccc2)s1 [Example B-0263] |  |  | 620 nM |  | 64%
O=S(=O)(NCc1[nH]nc(-c2ccc(F)cc2)c1-c1ccncc1)c1cccc2cnccc12 [Example B-0265] |  |  | 920 nM |  | 24%
Cn1cnc(S(=O)(=O)NCc2[nH]nc(-c3ccc(F)cc3)c2-c2ccncc2)c1 [Example B-0266] |  |  | 250 nM |  | 24%

The next lines start with results.

inhibition at 1 µM (human p38 kinase alpha) | inhibition at 10 µM (human p38 kinase alpha) | IC50 (human p38 kinase alpha) | IC50 (TNF-α) | SMILES | inhibition at 1 µM (TNF-α)
 |  | 160 nM |  | CCCOC(=O)NCc1[nH]nc(-c2ccc(F)cc2)c1-c1ccncc1 [Example B-0203] | 65%
 |  | 96 nM |  | CC(C)OC(=O)NCc1[nH]nc(-c2ccc(F)cc2)c1-c1ccncc1 [Example B-0205] | 54%
 |  | 120 nM |  | COC(=O)NCc1[nH]nc(-c2ccc(F)cc2)c1-c1ccncc1 [Example B-0207] | 52%
 |  | 57 nM |  | O=C(NCc1[nH]nc(-c2ccc(F)cc2)c1-c1ccncc1)C(F)(F)F [Example B-0210] | 67%
 |  | 120 nM |  | CCNC(=O)NCc1[nH]nc(-c2ccc(F)cc2)c1-c1ccncc1 [Example B-0212] | 28%
 |  | 160 nM |  | NC(=O)NCc1[nH]nc(-c2ccc(F)cc2)c1-c1ccncc1 [Example B-0214] | 50%
 |  | 200 nM |  | CC(=O)Nc1ccc(S(=O)(=O)NCc2[nH]nc(-c3ccc(F)cc3)c2-c2ccncc2)cc1 [Example B-0223] | 1%
 |  | 47 nM |  | O=S(=O)(NCc1[nH]nc(-c2ccc(F)cc2)c1-c1ccncc1)c1ccc(Cl)cc1 [Example B-0225] | 37%
 |  | 41 nM |  | O=S(=O)(NCc1[nH]nc(-c2ccc(F)cc2)c1-c1ccncc1)c1cccc(Cl)c1Cl [Example B-0230] | 30%
 |  | 55 nM |  | O=S(=O)(NCc1[nH]nc(-c2ccc(F)cc2)c1-c1ccncc1)c1ccc(F)cc1Cl [Example B-0231] | 40%
 |  | 48 nM |  | Cc1ccc(F)cc1S(=O)(=O)NCc1[nH]nc(-c2ccc(F)cc2)c1-c1ccncc1 [Example B-0232] | 24%
 |  | 95 nM |  | O=S(=O)(NCc1[nH]nc(-c2ccc(F)cc2)c1-c1ccncc1)c1c(Cl)cccc1Cl [Example B-0233] | 43%
 |  | 77 nM |  | O=S(=O)(NCc1[nH]nc(-c2ccc(F)cc2)c1-c1ccncc1)c1ccccc1C(F)(F)F [Example B-0236] | 46%
 |  | 200 nM |  | O=S(=O)(NCc1[nH]nc(-c2ccc(F)cc2)c1-c1ccncc1)c1ccccc1Cl [Example B-0240] | 70%
 |  | 100 nM |  | O=S(=O)(NCc1[nH]nc(-c2ccc(F)cc2)c1-c1ccncc1)c1cc(Cl)cc(Cl)c1 [Example B-0241] | 45%
 |  | < 100 nM |  | O=S(=O)(NCc1[nH]nc(-c2ccc(F)cc2)c1-c1ccncc1)c1ccc(F)c(Cl)c1 [Example B-0242] | 78%
 |  | < 100 nM | > 1000 nM | COc1ccc(C)cc1S(=O)(=O)NCc1[nH]nc(-c2ccc(F)cc2)c1-c1ccncc1 [Example B-0246] | 
 |  | 82 nM |  | O=S(=O)(NCc1[nH]nc(-c2ccc(F)cc2)c1-c1ccncc1)c1cccc(C(F)(F)F)c1 [Example B-0247] | 75%
 |  | 41 nM |  | O=S(=O)(NCc1[nH]nc(-c2ccc(F)cc2)c1-c1ccncc1)c1cccc2nonc12 [Example B-0252] | 54%
 |  | 140 nM |  | CN(C)S(=O)(=O)NCc1[nH]nc(-c2ccc(F)cc2)c1-c1ccncc1 [Example B-0264] | 18%
